Assay: gradient 5% acetonitrile 3 min, to 50% in 2 min, to 85% in 15 min, held 3 min, 100 µL/min
Conditions: column: Zorbax Extend-C18 2.1 x 50 mm; eluents: water / acetonitrile, 0.1% formic acid
How it was run: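 Retention times come from adduct peaks that were picked computationally and then checked by hand. The standards, pure and pooled in mixtures of ~100 molecules, were run on a Zorbax Extend-C18 column (2.1 × 50 mm, 1.8 μm) at 100 μL/min with water and acetonitrile, each with 0.1% formic acid. Detection was by quadrupole time-of-flight mass spectrometry in positive and negative ionization mode, with a dead volume of 40 μL and a dwell volume of 900 μL.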

Structure (SMILES) | RP-LC retention time [s]
COCCCN(CC(=O)N1CCc2sccc2C1COc1ccccc1)C(=O)C(C)C (centres undefined) | 892
Cc1nn(Cc2ccc(C(=O)NC3CC3)cc2)c(C)c1S(=O)(=O)N1CCC(C)CC1 | 859
CCCS(=O)(=O)N1CCc2[nH]nc(-c3ccccc3)c2C1 | 752
CCCC(=O)N1CCc2c([nH]c3ccccc23)C1c1ccc(OC)cc1 (centres undefined) | 720
O=C(CCn1nnc2cc(-c3noc(Cc4ccc(Br)cc4)n3)ccc21)N1CCOCC1 | 860
CN(C)S(=O)(=O)Nc1ccccn1 | 630
Cc1c(Cc2ccc3c(c2)OCO3)sc(NC(=O)c2ccc([N+](=O)[O-])s2)c1C#N | 1070
Cc1ccn2c(NC(=O)/C=C/c3ccccc3)c(-c3ccccc3)nc2c1 | 703
Cc1ccc(Nc2ncccc2S(N)(=O)=O)cc1F | 863
COc1ccccc1C(CNC(=O)c1cc(=O)c2cc(C)cc(C)c2o1)N(C)C (centres undefined) | 659
CSc1ccc(C2c3[nH]c4ccccc4c3CCN2C(=O)c2ccncc2)cc1 (centres undefined) | 958
Cc1noc(C)c1Cc1c(C(=O)NCCc2noc(C3CC3)n2)noc1C | 774
CSc1nc(N)c(C(=O)NC2CCCCC2)s1 | 878
O=C(COc1ccccc1[N+](=O)[O-])Nc1nc(-c2ccccc2)cs1 | 1040
COc1cccc(-c2noc(Cc3nnc(-c4ccccc4)o3)n2)c1OC | 894
CCn1c(=O)c2cc(C(=O)Nc3ccc(OC)cc3OC)nn2c2ccccc21 | 1030
CCC(=O)N1CCCC1c1nc2ccccc2n1CC(=O)N(c1ccccc1)C(C)C (centres undefined) | 709
COc1ccc(OC)c(S(=O)(=O)N2CCCC(C(=O)NC3CCCCC3)C2)c1 (centres undefined) | 867
Cc1nc2cc3c(cc2n1CC(=O)Nc1ccc2c(c1)OCCO2)OCCO3 | 632
CCN1C(=O)c2cc(S(=O)(=O)Nc3ccc(F)c(F)c3)ccc2Oc2cccnc21 | 1050
COc1ccc(-c2noc(Cn3nc(-c4ccc(C)cc4)ccc3=O)n2)c(OC)c1 | 949
C=CCNC(=O)c1nc(C(=O)N2CCN(c3ccccn3)CC2)cs1 | 567
Cc1nnc(-c2nnc(NC(C)C)c3ccccc23)o1 | 602
Cc1ccc(CNC(=O)Nc2ccc(-c3nc(-c4ccccc4)co3)cc2)cc1 | 1100
CCC(=O)NCc1ccc(-c2nc(C(C)C)cs2)cc1 | 873
CCc1onc(C)c1C1CCCN1C(=O)c1c(OC)cccc1OC (centres undefined) | 898

The remaining lines, values ahead:

RP-LC retention time [s] | Structure (SMILES)
1050 | COc1ccc(C(=O)N2CCc3nc(-c4ccc(Cl)cc4)ncc3C2)cc1F
994 | COc1cccc(Cc2nc(-c3cn(-c4ccc(F)cc4)nn3)no2)c1
939 | CCc1cc(C(=O)Nc2cccc(C#N)c2)nc2ccnn12
939 | CN1C(=O)C2CCCCN2c2ccc(C(=O)NCCCc3ccccc3)cc21 (centres undefined)
762 | O=C(c1ccccc1F)N1CCN(S(=O)(=O)c2cc3c4c(c2)CCC(=O)N4CCC3)CC1
722 | COCCC(=O)NC1CCN(C2=NS(=O)(=O)C(c3cccc(Cl)c3)=C2C)CC1
751 | COC1C(=O)N(c2cccc(F)c2)C12CCN(Cc1cn(C)c3ccccc13)CC2 (centres undefined)
700 | O=C(NCc1ccc(F)cc1F)C1CCCN(c2ncnc3nn(-c4ccc(F)cc4)cc23)C1 (centres undefined)
605 | O=C(CCCN1C(=O)c2cccnc2Oc2ccccc21)N1CCN(c2ccccn2)CC1
921 | O=C(Nc1cccc(C(F)(F)F)c1)Nc1cnn(-c2ncc(N3CCCC3)cn2)c1
1170 | Cc1ccc(-c2nc(C3CCN(S(=O)(=O)c4ccccc4F)CC3)no2)cc1
826 | CC(Oc1ccc(=O)n(-c2ccc(F)cc2)n1)C(=O)Nc1ccccc1Cl (centres undefined)
808 | O=C(Nc1ccccn1)c1csc2nc(-c3ccc(F)cc3)cn12
973 | Cc1ccc(C)c(CNC(=O)C2(c3ccc(NS(C)(=O)=O)cc3)CCCCC2)c1
743 | COc1ccccc1OCC(=O)Nc1ccc2c(c1)CN(C(=O)C1CC1)CC2
761 | O=C(c1cocn1)N1CC(F)(F)C[C@H]1c1nnc(-c2ccccc2)o1
1160 | O=C(c1cccc(Br)c1)N1CCc2nc(-c3ccc(Cl)cc3)ncc2C1
633 | COc1ccc(NC(=O)N2CCN(C3=CC4=NC(C)CN4C=N3)CC2)cc1Cl (centres undefined)
